From patent US10004701B2, “Methods and compositions for treating infection” (UNIVERSITY OF ROCHESTER, priority 2012, dated 2018)
Structures can show the parent of a compound that is named as a salt. Where two headings read alike, the source gives them in different places.

How the values were obtained:
Experiment in all cases: AK assay 384-well format, Prestwick library screening
[1] = tested on: P. aeruginosa; assay type: cell-based, Pseudomonas aeruginosa; conditions: 50 μM final drug concentration; for fold induction at 50 µM: Pseudomonas aeruginosa, 3 h
[2] = tested on: A. baumannii strain 98-37-09; assay type: cell-based, Acinetobacter baumannii; conditions: 50 μM final drug concentration; for fold induction at 50 µM: Acinetobacter baumannii, 983709, 3 h
[3] = tested on: E. coli; assay type: cell-based, Escherichia coli; conditions: 50 μM final drug concentration; for fold induction at 50 µM: Escherichia coli, 3 h
[4] = tested on: E. cloacae; assay type: cell-based, Enterobacter cloacae; conditions: 50 μM final drug concentration; for fold induction at 50 µM: Enterobacter cloacae, 3 h
[5] = tested on: E. faecium; assay type: cell-based, Enterococcus faecium; conditions: 50 μM final drug concentration; for fold induction at 50 µM: Enterococcus faecium, 3 h
[6] = tested on: K. pneumoniae; assay type: cell-based, Klebsiella pneumoniae; conditions: 50 μM final drug concentration; for fold induction at 50 µM: Klebsiella pneumoniae, 3 h
[7] = tested on: S. aureus strain USA300-0114; assay type: cell-based, Staphylococcus aureus; conditions: 50 μM final drug concentration; for fold induction at 50 µM: Staphylococcus aureus, USA300, 3 h
[8] = planktonic, cutoff for positive-scoring molecules 3-fold increase
[9] = planktonic, cutoff for positive-scoring molecules 3-fold increase, read-out: AK-based Prestwick Library Screening Results, P. aeruginosa (fold increase in extracellular AK activity)
[10] = planktonic, cutoff for positive-scoring molecules 3-fold increase, read-out: AK-based Prestwick Library Screening Results, A. baumannii (fold increase in extracellular AK activity)
[11] = planktonic, cutoff for positive-scoring molecules 3-fold increase, read-out: AK-based Prestwick Library Screening Results, E. coli (fold increase in extracellular AK activity)
[12] = planktonic, cutoff for positive-scoring molecules 3-fold increase, read-out: AK-based Prestwick Library Screening Results, E. cloacae (fold increase in extracellular AK activity)
[13] = planktonic, cutoff for positive-scoring molecules 3-fold increase, read-out: AK-based Prestwick Library Screening Results, E. faecium (fold increase in extracellular AK activity)
[14] = planktonic, cutoff for positive-scoring molecules 3-fold increase, read-out: AK-based Prestwick Library Screening Results, K. pneumoniae (fold increase in extracellular AK activity)
[15] = planktonic, cutoff for positive-scoring molecules 3-fold increase, read-out: AK-based Prestwick Library Screening Results, S. aureus (fold increase in extracellular AK activity)
[16] = cutoff for positive-scoring molecules 3-fold increase
[17] = 384-well format, cutoff for positive-scoring molecules 3-fold increase, read-out: AK-based Prestwick Library Screening Results, P. aeruginosa (increase in extracellular AK activity)
[18] = 384-well format, cutoff for positive-scoring molecules 3-fold increase, read-out: AK-based Prestwick Library Screening Results, A. baumannii (increase in extracellular AK activity)
[19] = 384-well format, cutoff for positive-scoring molecules 3-fold increase, read-out: AK-based Prestwick Library Screening Results, E. coli (increase in extracellular AK activity)
[20] = 384-well format, cutoff for positive-scoring molecules 3-fold increase, read-out: AK-based Prestwick Library Screening Results, E. cloacae (increase in extracellular AK activity)
[21] = 384-well format, cutoff for positive-scoring molecules 3-fold increase, read-out: AK-based Prestwick Library Screening Results, E. faecium (increase in extracellular AK activity)
[22] = 384-well format, cutoff for positive-scoring molecules 3-fold increase, read-out: AK-based Prestwick Library Screening Results, K. pneumoniae (increase in extracellular AK activity)
[23] = 384-well format, cutoff for positive-scoring molecules 3-fold increase, read-out: AK-based Prestwick Library Screening Results, S. aureus (increase in extracellular AK activity)

CN1[C@@H]2CC[C@H]1C[C@@H](O)C2 [Tropine]
fold induction at 50 µM ([1]; planktonic P. aeruginosa, […], read-out: AK-based Prestwick library screening result, P. aeruginosa (fold increase in extracellular AK activity)): 0.8 | fold induction at 50 µM ([2]; planktonic A. baumannii, […], read-out: AK-based Prestwick library screening result, A. baumannii (fold increase in extracellular AK activity)): 0.8 | fold induction at 50 µM ([3]; planktonic E. coli, […], read-out: AK-based Prestwick library screening result, E. coli (fold increase in extracellular AK activity)): 0.9 | fold induction at 50 µM ([4]; planktonic E. cloacae, […], read-out: AK-based Prestwick library screening result, E. cloacae (fold increase in extracellular AK activity)): 1.2 | fold induction at 50 µM ([5]; planktonic E. faecium, […], read-out: AK-based Prestwick library screening result, E. faecium (fold increase in extracellular AK activity)): 0.9 | fold induction at 50 µM ([6]; planktonic K. pneumoniae, […], read-out: AK-based Prestwick library screening result, K. pneumoniae (fold increase in extracellular AK activity)): 0.8 | fold induction at 50 µM ([7]; planktonic S. aureus, […], read-out: AK-based Prestwick library screening result, S. aureus (fold increase in extracellular AK activity)): 0.7

CN1[C@@H]2CC[C@H]1C[C@@H](OC(=O)c1c[nH]c3ccccc13)C2 [Tropisetron HCl]
fold induction at 50 µM ([1]; planktonic, cutoff for positive 3-fold increase, read-out: AK-based Prestwick Library Screening Results, P. aeruginosa (fold increase in extracellular AK activity)): 1.1 | fold induction at 50 µM ([2]; planktonic, cutoff for positive 3-fold increase, read-out: AK-based Prestwick Library Screening Results, A. baumannii (fold increase in extracellular AK activity)): 1.3 | fold induction at 50 µM ([3]; planktonic, cutoff for positive 3-fold increase, read-out: AK-based Prestwick Library Screening Results, E. coli (fold increase in extracellular AK activity)): 1.1 | fold induction at 50 µM ([4]; planktonic, cutoff for positive 3-fold increase, read-out: AK-based Prestwick Library Screening Results, E. cloacae (fold increase in extracellular AK activity)): 1.3 | fold induction at 50 µM ([5]; planktonic, cutoff for positive 3-fold increase, read-out: AK-based Prestwick Library Screening Results, E. faecium (fold increase in extracellular AK activity)): 1 | fold induction at 50 µM ([6]; planktonic, cutoff for positive 3-fold increase, read-out: AK-based Prestwick Library Screening Results, K. pneumoniae (fold increase in extracellular AK activity)): 0.8 | fold induction at 50 µM ([7]; planktonic, cutoff for positive 3-fold increase, read-out: AK-based Prestwick Library Screening Results, S. aureus (fold increase in extracellular AK activity)): 0.9

COc1cc2c3cc1Oc1cc(ccc1O)C[C@@H]1c4c(cc(OC)c(O)c4Oc4ccc(cc4)C[C@@H]3N(C)CC2)CC[N+]1(C)C.Cl.O.O.O.O.O.[Cl-] [Tubocurarine chloride pentahydrate (+)]
AK-based Prestwick Library Screening Results: P. aeruginosa (increase in extracellular AK activity) ([1]; planktonic P. aeruginosa, 384-well, […]): 0.6 | AK-based Prestwick Library Screening Results: A. baumannii (increase in extracellular AK activity) ([2]; planktonic A. baumannii, 384-well, […]): 0.7 | AK-based Prestwick Library Screening Results: E. coli (increase in extracellular AK activity) ([3]; planktonic E. coli, 384-well, […]): 0.7 | AK-based Prestwick Library Screening Results: E. cloacae (increase in extracellular AK activity) ([4]; planktonic E. cloacae, 384-well, […]): 0.6 | AK-based Prestwick Library Screening Results: E. faecium (increase in extracellular AK activity) ([5]; planktonic E. faecium, 384-well, […]): 0.9 | AK-based Prestwick Library Screening Results: K. pneumoniae (increase in extracellular AK activity) ([6]; planktonic K. pneumoniae, 384-well, […]): 0.6 | AK-based Prestwick Library Screening Results: S. aureus (increase in extracellular AK activity) ([7]; planktonic S. aureus, 384-well, […]): 0.5

CO[C@@H]1C=C2CCN(C)[C@@H]2C2c3cc4c(cc3C(=O)OC21)OCO4.O=[N+]([O-])O (some centres unmarked) [Ungerine nitrate]
AK-based Prestwick Library Screening Results, P. aeruginosa (fold increase in extracellular AK activity) [1, 8]: 1.1 | AK-based Prestwick Library Screening Results, A. baumannii (fold increase in extracellular AK activity) [2, 8]: 1.1 | AK-based Prestwick Library Screening Results, E. coli (fold increase in extracellular AK activity) [3, 8]: 1.3 | AK-based Prestwick Library Screening Results, E. cloacae (fold increase in extracellular AK activity) [4, 8]: 1.4 | AK-based Prestwick Library Screening Results, E. faecium (fold increase in extracellular AK activity) [5, 8]: 1.0 | AK-based Prestwick Library Screening Results, K. pneumoniae (fold increase in extracellular AK activity) [6, 8]: 1.0 | AK-based Prestwick Library Screening Results, S. aureus (fold increase in extracellular AK activity) [7, 8]: 1.2

COc1ccccc1N1CCN(CCCNc2cc(=O)n(C)c(=O)n2C)CC1 [Urapidil hydrochloride]
fold induction at 50 µM [1, 9]: 1 | fold induction at 50 µM [2, 10]: 1 | fold induction at 50 µM [3, 11]: 1 | fold induction at 50 µM [4, 12]: 1.1 | fold induction at 50 µM [5, 13]: 0.9 | fold induction at 50 µM [6, 14]: 0.7 | fold induction at 50 µM [7, 15]: 0.9

C[C@H](CCC(=O)O)[C@H]1CC[C@H]2[C@@H]3[C@@H](O)C[C@@H]4C[C@H](O)CC[C@]4(C)[C@H]3CC[C@]12C [Urosiol]
AK-based Prestwick Library Screening Results, P. aeruginosa (fold increase in extracellular AK activity) [1, 16]: 1.2 | AK-based Prestwick Library Screening Results, A. baumannii (fold increase in extracellular AK activity) [2, 16]: 1.3 | AK-based Prestwick Library Screening Results, E. coli (fold increase in extracellular AK activity) [3, 16]: 1.2 | AK-based Prestwick Library Screening Results, E. cloacae (fold increase in extracellular AK activity) [4, 16]: 1.4 | AK-based Prestwick Library Screening Results, E. faecium (fold increase in extracellular AK activity) [5, 16]: 1.0 | AK-based Prestwick Library Screening Results, K. pneumoniae (fold increase in extracellular AK activity) [6, 16]: 1.0 | AK-based Prestwick Library Screening Results, S. aureus (fold increase in extracellular AK activity) [7, 16]: 1.2

C[C@H]1[C@H](C)CC[C@]2(C(=O)O)CC[C@]3(C)C(=CC[C@@H]4[C@@]5(C)CC[C@H](O)C(C)(C)[C@@H]5CC[C@]43C)[C@H]12 [Ursolic acid]
fold induction at 50 µM [1, 17]: 0.4 | fold induction at 50 µM [2, 18]: 0.5 | fold induction at 50 µM [3, 19]: 0.4 | fold induction at 50 µM [4, 20]: 0.5 | fold induction at 50 µM [5, 21]: 2.8 | fold induction at 50 µM [6, 22]: 0.4 | fold induction at 50 µM [7, 23]: 0.1

Nc1ncnc2c1ncn2[C@@H]1O[C@H](CO)[C@@H](O)[C@@H]1O [Vidarabine]
fold induction at 50 µM [1, 9]: 1 | fold induction at 50 µM [2, 10]: 1 | fold induction at 50 µM [3, 11]: 1.1 | fold induction at 50 µM [4, 12]: 1.8 | fold induction at 50 µM [5, 13]: 1.1 | fold induction at 50 µM [6, 14]: 0.7 | fold induction at 50 µM [7, 15]: 1.5

C=CC(N)CCC(=O)O (centres unmarked) [Vigabatrin]
fold induction at 50 µM ([1]; planktonic P. aeruginosa, cutoff for positive-scoring molecules 3-fold increase, read-out: AK-based Prestwick Library Screening Results, P. aeruginosa (increase in extracellular AK activity)): 0.9 | fold induction at 50 µM ([2]; planktonic A. baumannii, cutoff for positive-scoring molecules 3-fold increase, read-out: AK-based Prestwick Library Screening Results, A. baumannii (increase in extracellular AK activity)): 1.1 | fold induction at 50 µM ([3]; planktonic E. coli, cutoff for positive-scoring molecules 3-fold increase, read-out: AK-based Prestwick Library Screening Results, E. coli (increase in extracellular AK activity)): 1 | fold induction at 50 µM ([4]; planktonic E. cloacae, cutoff for positive-scoring molecules 3-fold increase, read-out: AK-based Prestwick Library Screening Results, E. cloacae (increase in extracellular AK activity)): 0.8 | fold induction at 50 µM ([5]; planktonic E. faecium, cutoff for positive-scoring molecules 3-fold increase, read-out: AK-based Prestwick Library Screening Results, E. faecium (increase in extracellular AK activity)): 0.9 | fold induction at 50 µM ([6]; planktonic K. pneumoniae, cutoff for positive-scoring molecules 3-fold increase, read-out: AK-based Prestwick Library Screening Results, K. pneumoniae (increase in extracellular AK activity)): 0.8 | fold induction at 50 µM ([7]; planktonic S. aureus, cutoff for positive-scoring molecules 3-fold increase, read-out: AK-based Prestwick Library Screening Results, S. aureus (increase in extracellular AK activity)): 0.7

CC[C@]12CCCN3CCc4c(n(c5ccccc45)[C@@](O)(C(=O)OC)C1)[C@@H]32 [Vincamine]
fold induction at 50 µM [1, 17]: 1 | fold induction at 50 µM [2, 18]: 0.9 | fold induction at 50 µM [3, 19]: 0.9 | fold induction at 50 µM [4, 20]: 1.2 | fold induction at 50 µM [5, 21]: 0.9 | fold induction at 50 µM [6, 22]: 0.7 | fold induction at 50 µM [7, 23]: 0.7

CCOC(=O)C1=C[C@]2(CC)CCCN3CCc4c(n1c1ccccc41)[C@@H]32 [Vinpocetine]
fold induction at 50 µM [1, 17]: 1 | fold induction at 50 µM [2, 18]: 0.9 | fold induction at 50 µM [3, 19]: 0.9 | fold induction at 50 µM [4, 20]: 1 | fold induction at 50 µM [5, 21]: 1 | fold induction at 50 µM [6, 22]: 0.8 | fold induction at 50 µM [7, 23]: 0.8
